The supplement of paper PMC10307832

Key:
Test in all cases: relative viability (nuclei count vs DMSO), 5 days (fraction); higher = more cells survive
[1] = compound: C[As](C)SC[C@H](NC(=O)CC[C@H](N)C(=O)O)C(=O)NCC(=O)O [Darinaparsin] + COc1cc2c(Oc3ccc(NC(=O)C4(C(=O)Nc5ccc(F)cc5)CC4)cc3F)ccnc2cc1OCCCN1CCOCC1 [Foretinib] (partner 0.25 µM)
Summary of the method: (§1)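 After 5 days of treatment, lung cancer cells in 1536-well plates were fixed and stained in a single step (final 0.05% Triton X-100, 1% formaldehyde, 1 ug/ml Hoechst) and their nuclei counted on 4× images. Treatment had been applied by pin tool the day after seeding as one drug alone or as a fixed anchor-drug dose with five library-drug doses (not always all listed) in √10 steps. Relative viability is the nuclei count of treated wells divided by that of vehicle wells, and values are medians of duplicate plates.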

[2] = compound: CC1=C(C=C(C=C1)NC(=O)C2=CC(=CC=C2)C(C)(C)C#N)NC3=CC4=C(C=C3)N=CN(C4=O)C [AZ628] + O=C(CCCCCCC(=O)Nc1ccccc1)NO [Vorinostat] (partner 1 µM)
Summary of the method: as §1

[3] = compound: C[As](C)SC[C@H](NC(=O)CC[C@H](N)C(=O)O)C(=O)NCC(=O)O [Darinaparsin] + CC(=O)Nc1cccc(-n2c(=O)n(C3CC3)c(=O)c3c(Nc4ccc(I)cc4F)n(C)c(=O)c(C)c32)c1 [Trametinib] (partner 0.02 µM)
Summary of the method: as §1

[4] = compound: CC1=C(C=C(C=C1)NC(=O)C2=CC(=CC=C2)C(C)(C)C#N)NC3=CC4=C(C=C3)N=CN(C4=O)C [AZ628] + C[C@@H](Oc1cc(-c2cnn(C3CCNCC3)c2)cnc1N)c1c(Cl)ccc(F)c1Cl [Crizotinib] (partner 1 µM)
Summary of the method: as §1

LCLC-97TM1
relative viability ([1]; first compound 0.08 µM): 0.981
relative viability ([1]; first compound 0.8 µM): 0.882
relative viability ([1]; first compound 2.53 µM): 0.824
relative viability ([1]; first compound 8 µM): 1.04
relative viability ([2]; first compound 0.08 µM): 1.03
relative viability ([2]; first compound 0.253 µM): 0.729
relative viability ([2]; first compound 0.8 µM): 0.82
relative viability ([2]; first compound 2.53 µM): 0.756
relative viability ([2]; first compound 8 µM): 0.13
relative viability ([3]; first compound 0.08 µM): 0.264
relative viability ([3]; first compound 0.8 µM): 0.237
relative viability ([3]; first compound 2.53 µM): 0.204
relative viability ([3]; first compound 8 µM): 0.225
relative viability ([4]; first compound 0.08 µM): 0.741
relative viability ([4]; first compound 0.253 µM): 0.501
relative viability ([4]; first compound 0.8 µM): 0.352
relative viability ([4]; first compound 2.53 µM): 0.413
relative viability ([4]; first compound 8 µM): 0.205
